Source: patent publication US20230002375A1, “HYDROPYRAZINO[1,2-B]ISOQUINOLINE COMPOUNDS FOR THE TREATMENT OF AUTOIMMUNE DISEASE” (Hoffmann-La Roche Inc., priority 2019, published 2023)

How the values were obtained:
[1] = target: T1, human TLR8 (Homo sapiens, UniProt Q9NR97); experiment: HEK293-Blue-hTLR-8 cells assay (SEAP reporter, R848 stimulation); format: cell-based; conditions: HEK293-Blue-hTLR8 cells, R848, 20 hrs incubation; read-out: HEK/hTLR8 IC50
T1 sequence (Q9NR97 27-1041): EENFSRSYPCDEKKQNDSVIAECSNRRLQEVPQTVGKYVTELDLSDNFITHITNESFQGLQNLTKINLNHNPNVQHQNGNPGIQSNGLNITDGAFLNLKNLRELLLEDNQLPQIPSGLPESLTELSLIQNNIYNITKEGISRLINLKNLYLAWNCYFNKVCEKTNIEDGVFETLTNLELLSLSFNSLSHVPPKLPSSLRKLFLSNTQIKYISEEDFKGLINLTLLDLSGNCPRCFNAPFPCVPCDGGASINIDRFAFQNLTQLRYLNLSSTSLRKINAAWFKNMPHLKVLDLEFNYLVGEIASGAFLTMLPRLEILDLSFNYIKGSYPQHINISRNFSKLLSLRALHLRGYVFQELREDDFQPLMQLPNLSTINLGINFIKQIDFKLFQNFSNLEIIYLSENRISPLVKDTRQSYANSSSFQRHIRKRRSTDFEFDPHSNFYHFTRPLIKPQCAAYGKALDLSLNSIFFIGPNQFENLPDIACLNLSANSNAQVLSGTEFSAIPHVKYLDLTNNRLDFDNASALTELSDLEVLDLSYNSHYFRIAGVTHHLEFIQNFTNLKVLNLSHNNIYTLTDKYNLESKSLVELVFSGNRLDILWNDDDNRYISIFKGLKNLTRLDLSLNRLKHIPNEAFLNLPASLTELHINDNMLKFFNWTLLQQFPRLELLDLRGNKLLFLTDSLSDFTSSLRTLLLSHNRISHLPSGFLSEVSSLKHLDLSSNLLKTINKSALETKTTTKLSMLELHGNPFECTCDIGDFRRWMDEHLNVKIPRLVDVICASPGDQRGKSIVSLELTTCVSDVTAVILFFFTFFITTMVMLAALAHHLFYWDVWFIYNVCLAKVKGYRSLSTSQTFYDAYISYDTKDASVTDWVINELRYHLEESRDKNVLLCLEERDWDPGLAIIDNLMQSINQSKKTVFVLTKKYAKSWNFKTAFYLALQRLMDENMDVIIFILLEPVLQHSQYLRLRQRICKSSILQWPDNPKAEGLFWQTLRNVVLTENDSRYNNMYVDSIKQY
Description: The following tests were carried out in order to determine the activity of the compounds of formula (I), (Ia) or (Ib) in HEK293-Blue-hTLR-7/8/9 cells assay.
HEK293-Blue-hTLR-8 Cells Assay:
A stable HEK293-Blue-hTLR-8 cell line was purchased from InvivoGen (Cat.#: hkb-htlr8, San Diego, Calif., USA). These cells were originally designed for studying the stimulation of human TLR8 by monitoring the activation of NF-κB. A SEAP (secreted embryonic alkaline phosphatase) reporter gene was placed under the control of the IFN-β minimal promoter fused to five NF-κB and AP-1-binding sites. The SEAP was induced by activating NF-κB and AP-1 via stimulating HEK-Blue hTLR8 cells with TLR8 ligands. Therefore the reporter expression was declined by TLR8 antagonist under the stimulation of a ligand, such as R848, for incubation of 20 hrs. The cell culture supernatant SEAP reporter activity was determined using QUANTI-Blue™ kit (Cat.#: rep-qb1, Invivogen, San Diego, Ca, USA) at a wavelength of 640 nm, a detection medium that turns purple or blue in the presence of alkaline phosphatase.
HEK293-Blue-hTLR8 cells were incubated at a density of 250,000-450,000 cells/mL in a volume of 170 μL in a 96-well plate in Dulbecco's Modified Eagle's medium (DMEM) containing 4.5 g/L glucose, 50 U/mL penicillin, […], […], 2 mM L-glutamine, 10% (v/v) heat-inactivated fetal bovine serum with addition of 20 μL test compound in a serial dilution in the presence of final DMSO at 1% and 10 μL of 60 uM R848 in above DMEM, perform incubation under 37° C. in a CO2 incubator for 20 hrs. Then 20 μL of the supernatant from each well was incubated with 180 μL Quanti-blue substrate solution at 37° C. for 2 hrs and the absorbance was read at 620˜655 nm using a spectrophotometer. The signaling pathway that TLR8 activation leads to downstream NF-κB activation has been widely accepted, and therefore similar reporter assay was modified for evaluating TLR8 antagonist.

[2] = Human microsomal stability assay; format: in vitro ADME; conditions: human liver microsomes, 1 μM test compound, 0.5 mg/mL protein, 37° C.; low <7.0, medium 7.0-16.2, high 16.2-23.2 mL/min/kg
Description: Human Microsomal Stability Assay
Human liver microsomes (Cat.NO.: 452117, Corning, USA) were preincubated with test compound for 10 minutes at 37° C. in 100 mM potassium phosphate buffer, pH 7.4. The reactions were initiated by adding NADPH regenerating system. The final incubation mixtures contained 1 μM test compound, 0.5 mg/mL liver microsomal protein, 1 mM MgCl2, 1 mM NADP, 1 unit/mL isocitric dehydrogenase and 6 mM isocitric acid in 100 mM potassium phosphate buffer, pH 7.4. After incubation times of 0, 3, 6, 9, 15 and 30 minutes at 37° C., 300 μL of cold ACN (including internal standard) was added to 100 μL incubation mixture to terminate the reaction. Following precipitation and centrifugation, 100 uL supernatant will be taken out and added 300 uL water. The amount of compound remaining in the samples was determined by LC-MS/MS. Controls of no NADPH regenerating system at zero and 30 minutes were also prepared and analyzed. The results were categorized as: low (<7.0 mL/min/kg), medium (7.0-16.2 mL/min/kg) and high (16.2-23.2 mL/min/kg).

For `C[C@@H]1CN(c2ccc(C#N)c3ncccc23)C[C@@H]2Cc3cc(N4CC5NCCOC5C4)ccc3CN21` (stereo in doubt) [Example 10, 5-[(4R,11aS)-9-[(4aS,7aS)-3,4,4a,5,7,7a-hexahydro-2H-pyrrolo[3,4-b][1,4]oxazin-6-yl]-4-methyl-1,3,4,6,11,11a-hexahydropyrazino[1,2-b]isoquinolin-2-yl]quinoline-8-carbonitrile], the IC50 [1] was 1.5 nM and the “CL(h)” value [2] was 0.558 L/h/kg.
